Reference: patent US11369113B2, “Vector control compositions, methods and products utilizing same” (Syngenta Participations AG, priority 2017, dated 2022)
Like-named read-outs stand apart in the source and are kept apart here.

Experiments:
Assay type in all cases: in vivo
[1] = tested on: VK7 2014 (An. coluzzii, DDT & pyrethroid resistant); assay: Example B4: bottle based cross resistance study (CDC bottle assay), strain VK7 2014; set-up: unit not given here; conditions: 1 h bottle exposure
Method: (§1) Based on the “CDC bottle assay” (described at http://www.cdc.gov/malaria/resources/pdf/fsp/ir_manual/ir_cdc_bioassay_en.pdf) 1 ml of ethanol containing a test compound at a defined concentration was added to a 250 ml glass bottle and the bottles were placed on a rolling table to coat the inner surfaces as the solvent evaporated. Once dry, twenty five non-blood fed adult female mosquitoes of the appropriate species and strains (each three day old) were aspirated from the stock culture and gently blown into the exposure bottles. The lid of the bottle was replaced and the bottle placed upright out of direct sun light under standard culture conditions, nominally 26° C. and 60-80% relative humidity.
(§2) A stopwatch was started, and the assessment of the knock-down were made after 15 mins and 60 minutes. A mosquito was said to be knocked down if it was unable to stand, following the CDC definition. The bottles were replaced in an upright position when not being assessed.
(§3) After one hour the mosquitoes were carefully removed from the bottle with an aspirator and placed in a recovery cup. The mosquitoes were supplied with a 10% sucrose solution on a cotton wool bung, and stored under culture conditions. Assessments of the mortality were made after 24 hours.
(§4) Each treatment was replicated a minimum of three times, with the exception of the Banfora strain, where only a single replicate was undertaken, with the mean knockdown or mortality recorded. In each study, a set of bottles was infested with a known insecticide susceptible strain of mosquitoes from the same genera as the resistant strains.

[2] = tested on: Banfora (An. gambiae, DDT & pyrethroid resistant); assay: Example B4: bottle based cross resistance study (CDC bottle assay), strain Banfora; conditions: Anopheles gambiae, read-out: knockdown or mortality (Table B4 does not name the quantity)
Method: as §1, §2, §3, §4

[3] = tested on: Kisumu sus (Anopheles gambiae, susceptible); assay: Example B4: bottle based cross resistance study (CDC bottle assay), strain Kisumu sus; conditions: read-out: mean knockdown or mortality (Table B4 does not name the quantity)
Method: as §1, §2, §3, §4

[4] = tested on: Aedes aegypti (Yellow Fever Mosquito); assay: whole plant or invertebrate; conditions: for mortality at 0.2 ppm / mortality at 2 ppm / mortality at 20 ppm: Aedes aegypti
Method: (§5) […] Once the deposits were dry, five non-blood fed adult female Aedes aegypti (between two to five day old) were added to each well, and sustained with a 10% sucrose solution in a cotton wool plug. Assessment of the knockdown was carried our after 1 hour, and mortality after 24 hours and 48 hours.

[5] = tested on: Tiassalé 13 (An. gambiae, pyrethroid resistant); assay: Example B4: bottle based cross resistance study (CDC bottle assay), strain Tiassalé 13; conditions: Anopheles gambiae, read-out: mean knockdown or mortality (Table B4 does not name the quantity)
Method: as §1, §2, §3, §4

[6] = tested on: Anopheles stephensi; assay: Example B3: treated 6-well plate contact test, adult female Anopheles stephensi; conditions: for mortality at 0.3125 ppm / mortality at 0.625 ppm / mortality at 1.25 ppm / mortality at 2.5 ppm: Anopheles stephensi; for Knockdown 1 h: mean of two replicates
Method: The individual wells of six (6) well tissue culture plates were treated with 250 μl of an ethanol solution containing a test compound at a defined concentration. Once the deposits were dry, ten non-blood fed adult female Anopheles stephensi (each between two to five day old) were added to each well, and sustained with a 10% sucrose solution in a cotton wool plug. Assessment of the knockdown was carried our after 1 hour, and mortality after 24 hours and 48 hours. Each treatment was replicated twice, with the mean mortality recorded.

[7] = tested on: Anopheles stephensi (Indian Malaria Mosquito); assay: Example B2: treated 12-well plate contact test, adult female Anopheles stephensi; conditions: for mortality at 0.2 ppm / mortality at 2 ppm / mortality at 20 ppm: Anopheles stephensi
Method: as §5, with “Anopheles stephensi” for “Aedes aegypti”

[8] = Banfora, rate 6.25 ppm, 1 h bottle exposure, single replicate
[9] = Banfora, rate 12.5 ppm, 1 h bottle exposure, single replicate
[10] = Banfora, rate 25 ppm, 1 h bottle exposure, single replicate
[11] = 0.2 ppm, 24 h, read-out: adult mortality 24 h
[12] = 0.2 ppm, 48 h, read-out: adult mortality 48 h
[13] = 2 ppm, 24 h, read-out: adult mortality 24 h
[14] = 2 ppm, 48 h, read-out: adult mortality 48 h
[15] = 20 ppm, 24 h, read-out: adult mortality 24 h
[16] = 20 ppm, 48 h, read-out: adult mortality 48 h
[17] = Tiassalé 13, rate 6.25 ppm, 1 h bottle exposure
[18] = Tiassalé 13, rate 12.5 ppm, 1 h bottle exposure
[19] = Tiassalé 13, rate 25 ppm, 1 h bottle exposure
[20] = 24 h, read-out: adult mortality 24 h
[21] = 48 h, read-out: adult mortality 48 h

In the case of CO/C=C(/C(=O)OC)c1ccccc1Oc1nc(Cl)c(C(F)(F)F)s1 [Compound of formula I, Methyl (E)-2-[2-[4-chloro-5-(trifluoromethyl)thiazol-2-yl]oxyphenyl]-3-methoxy-prop-2-enoate], the “mean knockdown or mortality (Table B4 does not name the quantity)” value ([1]; VK7 2014, rate 6.25 ppm) was 10, the “mean knockdown or mortality (Table B4 does not name the quantity)” value ([1]; VK7 2014, rate 12.5 ppm) was 61 and the “mean knockdown or mortality (Table B4 does not name the quantity)” value ([1]; VK7 2014, rate 25 ppm) was 100. It also gave a knockdown or mortality (%) at 6.25 ppm [2, 8] of 26%, a knockdown or mortality (%) at 12.5 ppm [2, 9] of 52% and a knockdown or mortality (%) at 25 ppm [2, 10] of 100%. It also gave a percent knockdown or mortality at 6.25 ppm ([3]; Kisumu sus, rate 6.25 ppm, 1 h bottle exposure) of 74%, a percent knockdown or mortality at 12.5 ppm ([3]; Kisumu sus, rate 12.5 ppm, 1 h bottle exposure) of 99% and a percent knockdown or mortality at 25 ppm ([3]; Kisumu sus, rate 25 ppm, 1 h bottle exposure) of 100%. The “adult knockdown 1 h” value ([4]; 0.2 ppm) was 0, the “adult knockdown 1 h” value ([4]; 2 ppm) was 20 and the “adult knockdown 1 h” value ([4]; 20 ppm) was 100. The mortality at 0.2 ppm [4, 11] was 20%, the mortality at 0.2 ppm [4, 12] was 20% and the mortality at 2 ppm [4, 13] was 60%. For the same compound, the mortality at 2 ppm [4, 14] was 80%, the mortality at 20 ppm [4, 15] was 100% and the mortality at 20 ppm [4, 16] was 100%. For the same compound, the mean knockdown or mortality at 6.25 ppm [5, 17] was 69%, the mean knockdown or mortality at 12.5 ppm [5, 18] was 81% and the mean knockdown or mortality at 25 ppm [5, 19] was 100%. For the same compound, the mortality at 0.3125 ppm ([6]; 24 h, read-out: Mortality 24 h) was 63%, the mortality at 0.625 ppm ([6]; 24 h, read-out: Mortality 24 h) was 80% and the mortality at 1.25 ppm ([6]; 24 h, read-out: Mortality 24 h) was 98%. For the same compound, the mortality at 2.5 ppm ([6]; 24 h, read-out: Mortality 24 h) was 100%, the mortality at 0.3125 ppm ([6]; 48 h, read-out: Mortality 48 h) was 65% and the mortality at 0.625 ppm ([6]; 48 h, read-out: Mortality 48 h) was 82%. The mortality at 1.25 ppm ([6]; 48 h, read-out: Mortality 48 h) was 100%, the mortality at 2.5 ppm ([6]; 48 h, read-out: Mortality 48 h) was 100% and the “Knockdown 1 h” value ([6]; rate 0.3125 ppm) was 20. The “Knockdown 1 h” value ([6]; rate 0.625 ppm) was 43, the “Knockdown 1 h” value ([6]; rate 1.25 ppm) was 70 and the “Knockdown 1 h” value ([6]; rate 2.5 ppm) was 87. The “adult knockdown 1 h” value ([7]; 0.2 ppm) was 0, the “adult knockdown 1 h” value ([7]; 2 ppm) was 80 and the “adult knockdown 1 h” value ([7]; 20 ppm) was 100. The mortality at 0.2 ppm [7, 20] was 20%, the mortality at 2 ppm [7, 20] was 100% and the mortality at 20 ppm [7, 20] was 100%. The mortality at 0.2 ppm [7, 21] was 20%, the mortality at 2 ppm [7, 21] was 100% and the mortality at 20 ppm [7, 21] was 100%.

In the case of CO/C=C(/C(=O)OC)c1ccccc1Oc1ncc(C(F)(F)F)s1 [Compound of formula II, Methyl (E)-3-methoxy-2-[2-[5-(trifluoromethyl)thiazol-2-yl]oxyphenyl]-prop-2-enoate], the “mean knockdown or mortality (Table B4 does not name the quantity)” value ([1]; VK7 2014, rate 6.25 ppm) was 7, the “mean knockdown or mortality (Table B4 does not name the quantity)” value ([1]; VK7 2014, rate 12.5 ppm) was 18 and the “mean knockdown or mortality (Table B4 does not name the quantity)” value ([1]; VK7 2014, rate 25 ppm) was 100. The knockdown or mortality (%) at 6.25 ppm [2, 8] was 13%, the knockdown or mortality (%) at 12.5 ppm [2, 9] was 33% and the knockdown or mortality (%) at 25 ppm [2, 10] was 100%. For the same compound, the percent knockdown or mortality at 6.25 ppm ([3]; 1 h) was 61%, the percent knockdown or mortality at 12.5 ppm ([3]; 1 h) was 33% and the percent knockdown or mortality at 25 ppm ([3]; 1 h) was 100%. For the same compound, the “adult knockdown 1 h” value ([4]; 0.2 ppm) was 0, the “adult knockdown 1 h” value ([4]; 2 ppm) was 0 and the “adult knockdown 1 h” value ([4]; 20 ppm) was 100. The mortality at 0.2 ppm [4, 11] was 0%, the mortality at 0.2 ppm [4, 12] was 0% and the mortality at 2 ppm [4, 13] was 0%. It also gave a mortality at 2 ppm [4, 14] of 0%, a mortality at 20 ppm [4, 15] of 100% and a mortality at 20 ppm [4, 16] of 100%. For the same compound, the mean knockdown or mortality at 6.25 ppm [5, 17] was 55%, the mean knockdown or mortality at 12.5 ppm [5, 18] was 46% and the mean knockdown or mortality at 25 ppm [5, 19] was 100%. The mortality at 0.3125 ppm ([6]; 24 h, read-out: Mortality 24 h) was 15%, the mortality at 0.625 ppm ([6]; 24 h, read-out: Mortality 24 h) was 33% and the mortality at 1.25 ppm ([6]; 24 h, read-out: Mortality 24 h) was 83%. The mortality at 2.5 ppm ([6]; 24 h, read-out: Mortality 24 h) was 93%, the mortality at 0.3125 ppm ([6]; 48 h, read-out: Mortality 48 h) was 22% and the mortality at 0.625 ppm ([6]; 48 h, read-out: Mortality 48 h) was 30%. The mortality at 1.25 ppm ([6]; 48 h, read-out: Mortality 48 h) was 88%, the mortality at 2.5 ppm ([6]; 48 h, read-out: Mortality 48 h) was 97% and the “Knockdown 1 h” value ([6]; rate 0.3125 ppm) was 13. For the same compound, the “Knockdown 1 h” value ([6]; rate 0.625 ppm) was 27, the “Knockdown 1 h” value ([6]; rate 1.25 ppm) was 48 and the “Knockdown 1 h” value ([6]; rate 2.5 ppm) was 73. The “adult knockdown 1 h” value ([7]; 0.2 ppm) was 0, the “adult knockdown 1 h” value ([7]; 2 ppm) was 0 and the “adult knockdown 1 h” value ([7]; 20 ppm) was 100. For the same compound, the mortality at 0.2 ppm [7, 20] was 0%, the mortality at 2 ppm [7, 20] was 80% and the mortality at 20 ppm [7, 20] was 100%. It also gave a mortality at 0.2 ppm [7, 21] of 0%, a mortality at 2 ppm [7, 21] of 100% and a mortality at 20 ppm [7, 21] of 100%.

In the case of CC1(C)C(C=C(Cl)Cl)C1C(=O)OCc1cccc(Oc2ccccc2)c1 (stereo not drawn) [Permethrin], the “mean knockdown or mortality (Table B4 does not name the quantity)” value ([1]; VK7 2014, rate 6.25 ppm) was 5, the “mean knockdown or mortality (Table B4 does not name the quantity)” value ([1]; VK7 2014, rate 12.5 ppm) was 3 and the “mean knockdown or mortality (Table B4 does not name the quantity)” value ([1]; VK7 2014, rate 25 ppm) was 7. For the same compound, the knockdown or mortality (%) at 6.25 ppm ([2]; 1 h) was 14%, the knockdown or mortality (%) at 12.5 ppm ([2]; 1 h) was 38% and the knockdown or mortality (%) at 25 ppm ([2]; 1 h) was 45%. For the same compound, the percent knockdown or mortality at 5 ppm ([3]; 1 h) was 100%, the percent knockdown or mortality at 10 ppm ([3]; 1 h) was 100% and the percent knockdown or mortality at 20 ppm ([3]; 1 h) was 100%. For the same compound, the mean knockdown or mortality at 6.25 ppm ([5]; 1 h) was 13%, the mean knockdown or mortality at 12.5 ppm ([5]; 1 h) was 45% and the mean knockdown or mortality at 25 ppm ([5]; 1 h) was 69%.
